Measurements: ChEMBL document CHEMBL5380815, “Probing Ligand Binding Sites on Large Proteins by Nuclear Magnetic Resonance Spectroscopy of Genetically Encoded Non-Canonical Amino Acids” (J Med Chem, 2023)
Active and inactive are the calls of the source. The calls are words filed in the database; no cut-off is given here.

What was measured:
SARS-CoV-2 = assay: Antiviral activity against SARS-COV2 infected in African green monkey Vero E6 cells assessed as reduction of viral titer by immunofocus assay; assay type: functional, organism-based; conditions: Severe acute respiratory syndrome coronavirus 2, Vero C1008
[1] = target: Replicase polyprotein 1ab (Severe acute respiratory syndrome coronavirus 2) (UniProt P0DTD1); assay: Inhibition of wild type recombinant SARS-COV2 main protease expressed in Escherichia coli BL21 (DE3) using DABCYL-KTSAVLQSGFRKME-EDANS-NH2 as fluorogenic substrate at 1.5 to 50 uM preincubated for 10 mins followed by substrate addition by FRET assay; conditions: dose 1.5-50 µM
[2] = target: T1, Replicase polyprotein 1ab (Severe acute respiratory syndrome coronavirus 2, UniProt P0DTD1); assay: Binding affinity to SARS-COV2 main protease assessed as dissociation constant by mass spectrometry analysis
[3] = target: T1, Replicase polyprotein 1ab; assay: Binding affinity to wild type SARS-COV2 main protease expressed in Escherichia coli BL21 (DE3) assessed as dissociation constant by small angle X-ray scattering analysis
[4] = target: T1, Replicase polyprotein 1ab; assay: Binding affinity to SARS-COV2 main protease assessed as dissociation constant by analytical ultracentrifugation analysis

Row | SMILES | EC50 (SARS-CoV-2) [nM] | inhibition [1] | Kd [2] [nM] | Kd [3] [nM] | Kd [4] [nM]
1 | CCOc1cc2ncc(C#N)c(Nc3ccc(F)c(Cl)c3)c2cc1NC(=O)/C=C/CN(C)C [PELITINIB] | 1250 | inactive |  |  | 
2 | CC(=O)[C@@H]1CSCC(=O)N[C@H](Cc2ccc(O)cc2)C(=O)N[C@@H](CC(C)C)C(=O)N[C@@H](CCC(N)=O)C(=O)N[C@@H](Cc2ccc(O)cc2)C(=O)N[C@@H](C)C(=O)N[C@@H](C(C)C)C(=O)N[C@@H](CC(C)C)C(=O)N[C@@H](CCCNC(=N)N)C(=O)N[C@@H](Cc2c[nH]cn2)C(=O)N[C@@H](CCCCN)C(=O)N[C@@H](CCCNC(=N)N)C(=O)N[C@@H](CCCNC(=N)N)C(=O)N[C@@H](CCC(=O)O)C(=O)C1 |  |  | 140 | 7000 | 2500
